According to patent US20250002475A1 (EPICS THERAPEUTICS, priority 2023, published 2025):

What was measured:
[1] = test system: Caov-3 cells; assay: Caov-3 cellular viability assay (ATP-Lite, 72 h); format: cell-based; conditions: Homo sapiens, ATP-Lite luminescence, % viability relative to DMSO
Procedure, shortened: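 IC50 values come from concentration-response fits of luminescent ATP content (ATP-Lite One Step), normalised as % viability versus DMSO. Compound exposure was 72 h at 37 °C in RPMI-1640/10% FBS with 0.1% final DMSO. Wells held 10000 cells each.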

[2] = test system: Kasumi-1 cells; assay: Kasumi-1 cellular viability assay (ATP-Lite, 72 h); format: cell-based; conditions: Homo sapiens, ATP-Lite luminescence, % viability relative to DMSO
Procedure, shortened: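 Viability was read by ATP-Lite One Step luminescence after 72 h compound treatment at 37 °C/5% CO2, normalised to DMSO control, with IC50 fitted from concentration-response. Cells were Kasumi-1 (AML FAB M2) at 15000 per well in RPMI-1640/10% FBS, 0.1% DMSO final.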

[3] = target: T1, recombinant METTL3/METTL14 complex (Homo sapiens, UniProt Q86U44); assay: METTL3/14 Scintillation Proximity Assay (SPA), RNA methyltransferase activity; format: biochemical; conditions: 5.31 nM METTL3/14 complex, 250 nM RNA substrate, 1 μM 3H-SAM, 90 min; for compounds marked * best of the two separated forms
T1 construct: purchased Active Motif 311970; host or cells: Sf9 cells
T1 sequence (Q86U44 whole entry): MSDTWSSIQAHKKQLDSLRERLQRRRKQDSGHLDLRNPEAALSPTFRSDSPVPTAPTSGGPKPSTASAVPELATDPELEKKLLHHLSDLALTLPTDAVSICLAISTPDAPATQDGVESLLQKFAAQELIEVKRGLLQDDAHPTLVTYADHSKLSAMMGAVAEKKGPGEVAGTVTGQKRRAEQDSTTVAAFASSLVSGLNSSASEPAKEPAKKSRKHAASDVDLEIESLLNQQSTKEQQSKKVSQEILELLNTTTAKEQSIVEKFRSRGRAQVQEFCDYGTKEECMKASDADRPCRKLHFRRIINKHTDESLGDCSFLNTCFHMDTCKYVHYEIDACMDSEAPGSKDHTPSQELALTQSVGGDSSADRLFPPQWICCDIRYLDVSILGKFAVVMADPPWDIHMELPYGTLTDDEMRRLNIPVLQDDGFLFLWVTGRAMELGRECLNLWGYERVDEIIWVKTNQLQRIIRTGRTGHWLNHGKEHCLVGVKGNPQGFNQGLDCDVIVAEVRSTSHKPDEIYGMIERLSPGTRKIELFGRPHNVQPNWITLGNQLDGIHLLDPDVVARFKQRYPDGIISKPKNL
T1 sequence (Q9HCE5 whole entry partner): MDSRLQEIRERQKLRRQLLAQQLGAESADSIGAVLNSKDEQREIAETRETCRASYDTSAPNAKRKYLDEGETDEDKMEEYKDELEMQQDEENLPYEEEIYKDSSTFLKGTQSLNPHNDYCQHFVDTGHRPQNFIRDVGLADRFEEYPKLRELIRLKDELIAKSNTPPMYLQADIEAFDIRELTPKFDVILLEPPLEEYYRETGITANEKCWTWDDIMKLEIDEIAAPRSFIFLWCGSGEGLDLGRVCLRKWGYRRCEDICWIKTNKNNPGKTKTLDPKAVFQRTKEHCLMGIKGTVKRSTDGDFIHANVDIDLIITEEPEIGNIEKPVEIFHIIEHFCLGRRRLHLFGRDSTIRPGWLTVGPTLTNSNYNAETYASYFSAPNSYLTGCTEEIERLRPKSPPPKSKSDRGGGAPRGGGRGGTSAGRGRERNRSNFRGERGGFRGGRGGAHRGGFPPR

SMILES | IC50 [1] [µM] | IC50 [2] [µM] | IC50 [3] [nM]
c1cc(-c2cn(Cc3ccc(N4CCC[C@@H](NCC5CCC5)C4)nn3)nn2)c2cncn2c1 [Compound 003, (R)-N-(cyclobutylmethyl)-1-(6-((4-(imidazo[1,5-a]pyridin-8-yl)-1H-1,2,3-triazol-1-yl)methyl)pyridazin-3-yl)piperidin-3-amine] | > 5 | 0.5 to 5 | ≤ 50
COc1cc(-c2cn(Cc3ccc(N4CCCC(N5CCC(C)(C)CC5)C4)nn3)nn2)c2cn[nH]c2c1 (stereo not drawn) [Compound 006, 4-(1-((6-(4,4-dimethyl-[1,3′-bipiperidin]-1′-yl)pyridazin-3-yl)methyl)-1H-1,2,3-triazol-4-yl)-6-methoxy-1H-indazole] | 0.5 to 5 | 0.5 to 5 | ≤ 50
COc1cc(-c2cn(Cc3ccc(N4CCCC(N5CCC(C)CC5)C4)nn3)nn2)c2cn[nH]c2c1 (stereo not drawn) [Compound 007, 6-methoxy-4-(1-((6-(4-methyl-[1,3′-bipiperidin]-1′-yl)pyridazin-3-yl)methyl)-1H-1,2,3-triazol-4-yl)-1H-indazole] | 0.5 to 5 | 0.5 to 5 | ≤ 50
COc1cc(-c2cn(Cc3ccc(N4CCCC(N5CCC6(CCC6)C5)C4)nn3)nn2)c2cn[nH]c2c1 (stereo not drawn) [Compound 008, 4-(1-((6-(3-(6-azaspiro[3.4]octan-6-yl)piperidin-1-yl)pyridazin-3-yl)methyl)-1H-1,2,3-triazol-4-yl)-6-methoxy-1H-indazole] | 0.5 to 5 | > 5 | ≤ 50
c1cc2cc(-c3cn(Cc4ccc(N5CCC[C@@H](NCC6CCC6)C5)nn4)nn3)cnc2[nH]1 [Compound 009, (R)-1-(6-((4-(1H-pyrrolo[2,3-b]pyridin-5-yl)-1H-1,2,3-triazol-1-yl)methyl)pyridazin-3-yl)-N-(cyclobutylmethyl)piperidin-3-amine] | 0.5 to 5 | 0.5 to 5 | ≤ 50
O=C(NCc1ccc(N2CCC[C@@H](NCC3CCC3)C2)nn1)c1cc(=O)n2ccsc2n1 [Compound 010, (R)-N-((6-(3-((cyclobutylmethyl)amino)piperidin-1-yl)pyridazin-3-yl)methyl)-5-oxo-5H-thiazolo[3,2-a]pyrimidine-7-carboxamide] | > 5 | > 5 | 50 to 500
O=C(NCc1ccc(N2CCCC(NCC34CC(F)(C3)C4)C2)nn1)c1cc(=O)n2ccccc2n1 (stereo not drawn) [Compound 011, N-((6-(3-(((3-fluorobicyclo[1.1.1]pentan-1-yl)methyl)amino)piperidin-1-yl)pyridazin-3-yl)methyl)-4-oxo-4H-pyrido[1,2-a]pyrimidine-2-carboxamide] | > 5 | > 5 | 50 to 500
COc1cncc(-c2cn(Cc3ccc(N4CCC[C@@H](NCC5CCC5)C4)nn3)nn2)c1 [Compound 012, (R)-N-(cyclobutylmethyl)-1-(6-((4-(5-methoxypyridin-3-yl)-1H-1,2,3-triazol-1-yl)methyl)pyridazin-3-yl)piperidin-3-amine] | 0.5 to 5 | 0.5 to 5 | ≤ 50
COc1cc(-c2cn(Cc3ccc(N4CCC[C@@H](NCC5CCC5)C4)nn3)nn2)c2cncn2c1 [Compound 013, (R)-N-(cyclobutylmethyl)-1-(6-((4-(6-methoxyimidazo[1,5-a]pyridin-8-yl)-1H-1,2,3-triazol-1-yl)methyl)pyridazin-3-yl)piperidin-3-amine] | ≤ 0.5 | 0.5 to 5 | ≤ 50
COc1cc(-c2cn(Cc3ccc(N4CCC[C@@H](NCC5CC5)C4)nn3)nn2)c2cn[nH]c2c1 [Compound 015, (R)-N-(cyclopropylmethyl)-1-(6-((4-(6-methoxy-1H-indazol-4-yl)-1H-1,2,3-triazol-1-yl)methyl)pyridazin-3-yl)piperidin-3-amine] | ≤ 0.5 | 0.5 to 5 | ≤ 50
O=c1cc(-c2cn(Cc3ccc(N4CCC[C@@H](NCC5CCC5)C4)nn3)nn2)nc2ccccn12 [Compound 017, (R)-2-(1-((6-(3-((cyclobutylmethyl)amino)piperidin-1-yl)pyridazin-3-yl)methyl)-1H-1,2,3-triazol-4-yl)-4H-pyrido[1,2-a]pyrimidin-4-one] | > 5 | > 5 | ≤ 50
COc1cc(-c2cn(Cc3ccc(N4CCC[C@@H](NCC56CC(F)(C5)C6)C4)nn3)nn2)c2cn[nH]c2c1 [Compound 018, (R)-N-((3-fluorobicyclo[1.1.1]pentan-1-yl)methyl)-1-(6-((4-(6-methoxy-1H-indazol-4-yl)-1H-1,2,3-triazol-1-yl)methyl)pyridazin-3-yl)piperidin-3-amine] | ≤ 0.5 | 0.5 to 5 | ≤ 50
COc1cnc(C#N)c(-c2cn(Cc3ccc(N4CCC[C@@H](NCC5CCC5)C4)nn3)nn2)c1 [Compound 019, (R)-3-(1-((6-(3-((cyclobutylmethyl)amino)piperidin-1-yl)pyridazin-3-yl)methyl)-1H-1,2,3-triazol-4-yl)-5-methoxypicolinonitrile] | > 5 | > 5 | ≤ 50
COc1cc(-c2cn(Cc3ccc(N4CCCC(NCC56CC(C)(C5)C6)C4)nn3)nn2)c2cn[nH]c2c1 (stereo not drawn) [Compound 020, 1-(6-((4-(6-methoxy-1H-indazol-4-yl)-1H-1,2,3-triazol-1-yl)methyl)pyridazin-3-yl)-N-((3-methylbicyclo[1.1.1]pentan-1-yl)methyl)piperidin-3-amine] | 0.5 to 5 | 0.5 to 5 | ≤ 50
COc1cc(-c2cn(Cc3ccc(N4CCC[C@@H](NCCC(C)(C)C)C4)nn3)nn2)c2cn[nH]c2c1 [Compound 024, (R)-N-(3,3-dimethylbutyl)-1-(6-((4-(6-methoxy-1H-indazol-4-yl)-1H-1,2,3-triazol-1-yl)methyl)pyridazin-3-yl)piperidin-3-amine] | > 5 | > 5 | ≤ 50
COc1cc(-c2cn(Cc3ccc(N4CCCC(NC5CC56CCC6)C4)nn3)nn2)c2cn[nH]c2c1 (stereo not drawn) [Compound 025, 1-(6-((4-(6-methoxy-1H-indazol-4-yl)-1H-1,2,3-triazol-1-yl)methyl)pyridazin-3-yl)-N-(spiro[2.3]hexan-1-yl)piperidin-3-amine] | ≤ 0.5 | 0.5 to 5 | ≤ 50
COc1cc(-c2cn(Cc3cnc(N4CCCC(NCC5CCC5)C4)s3)nn2)c2cn[nH]c2c1 (stereo not drawn) [Compound 026, N-(cyclobutylmethyl)-1-(5-((4-(6-methoxy-1H-indazol-4-yl)-1H-1,2,3-triazol-1-yl)methyl)thiazol-2-yl)piperidin-3-amine] | > 5 | 0.5 to 5 | ≤ 50
COc1cc(-c2cn(Cn3ccc(N4CCCC(NCC5CCC5)C4)cc3=O)nn2)c2cn[nH]c2c1 (stereo not drawn) [Compound 027, 4-(3-((cyclobutylmethyl)amino)piperidin-1-yl)-1-((4-(6-methoxy-1H-indazol-4-yl)-1H-1,2,3-triazol-1-yl)methyl)pyridin-2(1H)-one] | ≤ 0.5 | ≤ 0.5 | ≤ 50
COc1cc(-c2cn(Cn3ncc(N4CCCC(NCC5CCC5)C4)cc3=O)nn2)c2cn[nH]c2c1 (stereo not drawn) [Compound 028, 5-(3-((cyclobutylmethyl)amino)piperidin-1-yl)-2-((4-(6-methoxy-1H-indazol-4-yl)-1H-1,2,3-triazol-1-yl)methyl)pyridazin-3(2H)-one] | 0.5 to 5 | 0.5 to 5 | ≤ 50
